Measured values: US9468641B2, “Anti-inflammatory pharmaceutical composition comprising benzopyranyl tetracycles” (SEOUL NATIONAL UNIVERSITY R&DB FOUNDATION, priority 2014, dated 2016)

Key:
[1] = tested on: Il6, Il1b, Nos2, and Tnf; assay: RT-PCR of pro-inflammatory mediator expression; assay type: cell-based; details: FIG. 3
Protocol: For the analysis of gene expression, cells were incubated with ICM for 6 hrs in the presence of LPS (for control, cells were treated with DMSO in the absence of LPS). Total RNA was extracted from cells using TRIzol reagent. Reverse transcription was conducted using Superscript II (Invitrogen) and oligo (dT) primers. PCR amplification was conducted using a DNA Engine Tetrad Peltier Thermal Cycler (Bio-Rad) using specific primer sets (at an annealing temperature of 55-60° C. for 20-30 cycles). To analyze PCR products, each sample was electrophoresed on a 1% agarose gel. The Gapdh (Glyceraldehyde-3-phosphate dehydrogenase) gene was used as an internal control.

[2] = tested on: LPS-mediated microglial activation; assay: LPS neuroinflammation model; assay type: in vivo, C57BL/6 mice; details: cortex, substantia nigra, hippocampus; ICM 2 and 10 mg/kg, FIG. 19
Protocol: All experiments were performed on 11-week-old male C57BL/6 mice. The animals were divided into four experimental groups (group 1: control treated with vehicle; group 2: treated with ICM; group 3: treated with LPS and vehicle; and group 4: treated with LPS and ICM). ICM (2 or 10 mg per kg body weight) or vehicle (distilled water containing 5% DMSO and 40% polyethylene glycol) was administered once a day for 4 days. LPS was administered at a dose of 5 mg/kg on day 2 for a single challenge.
Mice were anesthetized with diethyl ether, transcardially perfused with cold saline, and then fixed with 4% paraformaldehyde diluted in 0.1 M PBS. Brains or lumbar spinal cords were fixed using 4% PFA for 3 days and then cryoprotected with a 30% sucrose solution for 3 days. Three animals were used per experimental group. The fixed brains and spinal cords were embedded in OCT compound for frozen sectioning and then sectioned coronally at 20 μm. To detect LPS-induced microglial activation, each section was incubated with a rabbit anti-Iba-1 antibody and FluoroMyelin. The sections were visualized directly or incubated with Cy3-conjugated anti-rabbit IgG antibody. Also, the sections were stained with hematoxylin and eosin to assess inflammatory lesions.

[3] = tested on: proinflammatory cytokine TNFα; assay: TNF-α ELISA of LPS-induced secretion; assay type: cell-based; details: FIG. 4
Protocol: TNF-α secretion was measured using a TNF-α ELISA kit. Cells were treated with LPS in the absence or presence of ICM. After 24 hrs of incubation, the levels of TNF-α in the culture medium were measured with rat monoclonal anti-mouse TNF-α antibody as a capture antibody, and goat biotinylated polyclonal anti-mouse TNF-α antibody as a detection antibody. The biotinylated anti-TNF-α antibody was detected by sequential incubation with streptavidin-horseradish peroxidase conjugate. After incubation with a TMB substrate for 20 min, the color development was stopped by adding 2 N H2SO4. The absorbance was then read (450 nm and 540 nm) using a microplate reader.

[4] = target: T1, purified HMGB2 protein (Homo sapiens, UniProt P26583); assay: SPR (surface plasmon resonance) assay; assay type: binding; details: 1, 15, 30, 50, 75, and 100 μM ICM, FIG. 13
T1 sequence (P26583 1-209): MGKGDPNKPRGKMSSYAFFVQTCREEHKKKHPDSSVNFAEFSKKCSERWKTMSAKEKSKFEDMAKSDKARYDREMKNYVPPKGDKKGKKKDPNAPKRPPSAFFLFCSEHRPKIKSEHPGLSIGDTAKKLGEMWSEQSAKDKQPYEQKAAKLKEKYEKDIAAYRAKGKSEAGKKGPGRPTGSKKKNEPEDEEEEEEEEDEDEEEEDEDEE
Protocol: To determine the dissociation constant of the interaction of ICM with HMGB, SPR analysis was performed using Biacore T100. A carboxyl group bound onto a CM5 chip of the biosensor was activated with EDC(1-ethyl-3-(3-dimethylaminopropyl)-carbodiimide) and NHS(N-hydroxysuccinimide) to form reactive succinimide ester. HMGB1 (10 mM Na-acetate, pH 4.0) and HMGB2 (10 mM Na-acetate, pH 4.5) proteins were immobilized via an amide bond onto the sensor chip, followed by quenching excess succinimide ester with 1 M ethanolamine-HCl (pH 8.0). PBS was used as a running buffer for the immobilization. After immobilization, various concentrations of ICM were injected (for 60 sec at a flow rate of 30 μl/min). […] For this, a buffer containing 10-mM HEPES (pH 7.4), 5% DMSO, 150 mM NaCl, 3 mM EDTA, and 0.005% P20 was injected. Binding was measured at 25° C. The measurements were analyzed using Biacore T100 Evaluation software (GE Healthcare). Finally, the curve was obtained by normalizing to the control. The dissociation constant was calculated by fitting the curve to the 1:1 binding model.

[5] = tested on: EAE model; assay: Experimental auto-immune encephalitis (EAE) model; assay type: in vivo, C57BL/6 mice
[6] = tested on: BV-2 cells; assay: Griess assay of LPS-induced nitrite release in BV-2 cells; assay type: cell-based; details: BV2 microglial cells, with or without LPS stimulation, FIG. 1
Protocol: (§1) Cells increase the secretion of nitrite when induced to be inflammatory, but decrease the secretion of nitrite in the presence of an anti-inflammatory agent. […] Cells were treated with the compounds in the absence or presence of 100 ng/mL LPS (lipopolysaccharide). After 24 hrs of incubation, the cell culture media were reacted with Griess reagent (0.1% naphthylethylenediamine dihydrochloride and 1% sulfanilamide in 2% phosphoric acid). Absorbance was measured at 550 nm using a microplate reader, and the level of nitrite was estimated by comparison with a sodium nitrite standard curve.

[7] = target: T2, HMGB2 (Mus musculus, UniProt P30681); assay: Griess assay in BV-2 cells with siRNA-mediated HMGB2 knockdown; assay type: cell-based; details: normalized to DMSO treatment, FIG. 16
T2 construct: endogenous in cells
T2 sequence (P30681 1-210): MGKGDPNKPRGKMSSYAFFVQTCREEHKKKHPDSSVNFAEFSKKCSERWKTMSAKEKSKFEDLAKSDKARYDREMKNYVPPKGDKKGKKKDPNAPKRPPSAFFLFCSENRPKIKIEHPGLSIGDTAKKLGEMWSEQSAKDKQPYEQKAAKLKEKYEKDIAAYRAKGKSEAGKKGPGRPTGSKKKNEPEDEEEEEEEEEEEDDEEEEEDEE
Protocol: as §1
The siRNA transfection of BV-2 microglial cells was performed using Lipofectamine™ 2000 (Invitrogen). Forty-eight hours after transfection, the cells were used for further experiments.

## CC1(C)Oc2cc(O)ccc2C2C1=CCn1c(=O)n(-c3ccccc3)c(=O)n12 (centres unmarked) [ICM]
[1]
  LPS-induced expression of pro-inflammatory genes: suppressed the LPS-induced expression of pro-inflammatory genes in a dose-dependent manner
[2]
  LPS-mediated microglial activation (Iba-1+ cell number): effectively blocked LPS-mediated microglial activation in all the brain parts
[3]
  LPS-induced secretion of TNFα: suppressed LPS-induced secretion of the proinflammatory cytokine
[4]
  binding to HMGB (SPR sensorgram): binds directly to HMGB
[5]; ELISA, FIG. 24
  HMGB2 levels in cerebrospinal fluid and serum: effectively suppressed the release of HMGB2 into body fluids
[5]; FIG. 21
  microglial activation in spinal cords (anti-Iba-1 staining): clearly suppressed by ICM treatment
[5]; RT-PCR, microglial cells from brain of EAE mice, FIG. 23
  mRNA levels of proinflammatory cytokines and chemokines in microglia: decreased in the ICM-treated group
[5]; days after MOG immunization, FIG. 20
  mean clinical score (0-5 scale): reduced with ICM treatment
[5]; immunofluorescence, FIG. 25
  HMGB1 or HMGB2 levels in spinal cord sections: effectively reduced the EAE-induced increase of HMGB1 or HMGB2 levels
[5]; immunofluorescence, FIG. 26
  MAP-2 levels in ventral horn and ventral column: effectively recovered by ICM administration
[5]; lumbar spinal cord, 15 days after EAE induction, FIG. 22
  inflammatory lesions in spinal cords (H&E staining): substantially attenuated by ICM treatment
[5]; spinal cord sections, FIG. 27
  demyelination (anti-MBP staining): suppresses the demyelination in the EAE model
[6]
  LPS-induced nitrite release: efficiently blocked LPS-induced nitrite release from BV2 microglial cells in a dose-dependent manner
[7]
  anti-inflammatory effect on LPS-induced nitrite release under HMGB2 knockdown: anti-inflammatory effect of ICM was decreased by HMGB2 knockdown
